Assay results reported in patent US7238775B2, “Receptor(SSTR4)-selective somatostatin analogs” (The Salk Institute for Biological Studies, priority 2002, dated 2007).
Values joined by “and” are separate entries in the source; they are usually repeats but may differ in a detail not shown here. Identical values can stand only once. Bridge positions count the residues as written; N and C are the ends. Peptide text beside a SMILES is read from it.

Tests used:
Assay in all cases: Displacement of 125I-[Leu8,D-Trp22,Tyr25]SRIF-28 from cloned receptor, membrane pellet autoradiography
Format in all cases: binding
[1] = target: T1, hSSTR2 (Homo sapiens, UniProt P30874)
T1 construct: expressed in transfected cells; host or cells: CHO-K1 cells and CCL39 cells
T1 sequence (P30874 whole entry): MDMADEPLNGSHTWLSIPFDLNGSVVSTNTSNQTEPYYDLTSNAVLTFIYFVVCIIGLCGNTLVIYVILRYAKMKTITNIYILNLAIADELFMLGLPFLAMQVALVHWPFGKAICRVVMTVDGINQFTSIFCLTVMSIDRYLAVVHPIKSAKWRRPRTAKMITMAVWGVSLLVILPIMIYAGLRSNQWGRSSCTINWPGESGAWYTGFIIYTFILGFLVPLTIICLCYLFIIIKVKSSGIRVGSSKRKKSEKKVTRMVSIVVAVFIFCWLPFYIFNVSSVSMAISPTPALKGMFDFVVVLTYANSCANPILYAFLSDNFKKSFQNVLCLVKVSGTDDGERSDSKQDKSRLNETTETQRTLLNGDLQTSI
Experimental: (§1) In vitro Bioassay: The effects of the various somatostatin analogs are tested in vitro for their ability to bind to isolated cloned receptors expressed on CHO-K1 cells and CCL39 cells. CHO-K1 cells are grown in Ham's F-12 medium, and CCL39 cells are grown in Dulbecco's modified Eagle's medium/Ham's F-12(1:1) mix, supplemented with 10% fetal bovine serum, 100 U/ml penicillin and 100 μg/ml streptomycin, in humidified air containing 5% CO2 at 37° C.
(§2) Cells are washed twice with and scraped into ice-cold 0.05 M Tris-HCl (pH 7.4), collected by centrifugation, and homogenized using a rotor/stator/system in the same buffer. After centrifugation at 120 g for 5 min at 4° C., the supernatant is collected and centrifuged again at 48,000 g for 30 min at 4° C. The resulting pellet is resuspended in ice-cold Tris buffer, transferred into a microfuge tube, and centrifuged at 20,000 g for 15 min at 4° C. After withdrawal of the supernatant, the membrane pellet is stored at −80° C.
(§3) Receptor autoradiography is performed on 20 μm thick cryostat sections of the membrane pellets, mounted on microscope slides, and then stored at −20° C. […] Increasing concentrations of the unlabeled peptide are used ranging from 0.1-1000 nM. […] IC50 values are calculated after quantification of the data using a computer-assisted image processing system as known in this art.
(§4) The numbers in parentheses indicate the number of times the particular binding test was carried out.

[2] = target: T2, hSSTR5 (Homo sapiens, UniProt P35346)
T2 construct: expressed in transfected cells; host or cells: CHO-K1 cells and CCL39 cells
T2 sequence (P35346 whole entry): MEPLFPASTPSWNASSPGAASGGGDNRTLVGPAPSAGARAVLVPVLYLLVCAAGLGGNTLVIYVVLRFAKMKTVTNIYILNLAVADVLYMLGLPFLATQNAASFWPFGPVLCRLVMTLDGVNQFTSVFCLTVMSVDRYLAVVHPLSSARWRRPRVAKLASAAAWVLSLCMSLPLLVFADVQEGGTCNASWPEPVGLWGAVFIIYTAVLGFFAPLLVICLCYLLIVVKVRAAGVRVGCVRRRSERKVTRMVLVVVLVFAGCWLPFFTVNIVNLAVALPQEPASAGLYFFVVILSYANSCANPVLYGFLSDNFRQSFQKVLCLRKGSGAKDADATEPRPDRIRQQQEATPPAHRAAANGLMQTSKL
Experimental: as §1, §2, §3, §4

[3] = target: T3, hSSTR3 (Homo sapiens, UniProt P32745)
T3 construct: expressed in transfected cells; host or cells: CHO-K1 cells and CCL39 cells
T3 sequence (P32745 whole entry): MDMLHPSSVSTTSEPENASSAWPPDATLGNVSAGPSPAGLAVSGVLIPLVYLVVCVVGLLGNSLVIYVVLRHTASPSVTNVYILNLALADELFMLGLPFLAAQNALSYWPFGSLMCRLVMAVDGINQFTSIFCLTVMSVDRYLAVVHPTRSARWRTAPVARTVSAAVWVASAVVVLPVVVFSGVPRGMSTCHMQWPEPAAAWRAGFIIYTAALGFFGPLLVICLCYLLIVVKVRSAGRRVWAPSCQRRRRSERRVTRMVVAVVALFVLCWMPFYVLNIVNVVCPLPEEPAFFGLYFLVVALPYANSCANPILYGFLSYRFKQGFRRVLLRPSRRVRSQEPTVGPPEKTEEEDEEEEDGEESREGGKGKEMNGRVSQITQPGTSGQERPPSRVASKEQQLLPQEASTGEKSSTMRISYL
Experimental: as §1, §2, §3, §4

[4] = target: T4, hSSTR4 (Homo sapiens, UniProt P31391); details: for IC50: inhibition of 125I-SRIF-28 radioligand binding, cloned human receptor
T4 construct: expressed in transfected cells; host or cells: CHO-K1 cells and CCL39 cells
T4 sequence (P31391 whole entry): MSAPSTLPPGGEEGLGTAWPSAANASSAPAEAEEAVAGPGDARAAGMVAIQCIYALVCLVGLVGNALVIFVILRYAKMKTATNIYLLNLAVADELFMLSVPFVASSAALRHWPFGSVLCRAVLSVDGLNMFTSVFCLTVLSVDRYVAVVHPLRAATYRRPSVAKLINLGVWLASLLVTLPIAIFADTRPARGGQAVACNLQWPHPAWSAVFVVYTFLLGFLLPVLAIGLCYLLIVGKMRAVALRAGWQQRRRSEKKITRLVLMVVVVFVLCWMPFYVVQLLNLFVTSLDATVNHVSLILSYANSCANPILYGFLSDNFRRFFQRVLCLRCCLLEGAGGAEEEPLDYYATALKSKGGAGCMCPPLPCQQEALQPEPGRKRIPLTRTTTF
Experimental: as §1, §2, §3, §4

[5] = target: T5, hSSTR1 (Homo sapiens, UniProt P30872)
T5 construct: expressed in transfected cells; host or cells: CHO-K1 cells and CCL39 cells
T5 sequence (P30872 whole entry): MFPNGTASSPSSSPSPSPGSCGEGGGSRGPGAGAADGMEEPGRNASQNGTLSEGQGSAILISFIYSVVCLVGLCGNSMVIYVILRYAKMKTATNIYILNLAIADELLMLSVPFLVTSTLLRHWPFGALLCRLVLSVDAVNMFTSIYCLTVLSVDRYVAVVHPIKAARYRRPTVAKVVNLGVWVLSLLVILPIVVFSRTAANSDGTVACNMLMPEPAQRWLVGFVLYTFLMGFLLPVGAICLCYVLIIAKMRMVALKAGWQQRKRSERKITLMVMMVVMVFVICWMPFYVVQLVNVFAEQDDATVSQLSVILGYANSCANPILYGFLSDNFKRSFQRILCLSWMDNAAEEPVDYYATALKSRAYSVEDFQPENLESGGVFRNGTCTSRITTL
Experimental: as §1, §2
Receptor autoradiography is performed on 20 μm thick cryostat sections of the membrane pellets, mounted on microscope slides, and then stored at −20° C. […] […] […] IC50 values are calculated after quantification of the data using a computer-assisted image processing system as known in this art.
as §4

concentration below which it does not bind to human SSTR2 [1] [nM]	concentration below which it does not bind to human SSTR5 [2] [nM]	concentration below which it does not bind to human SSTR3 [3] [nM]	concentration below which it does not bind to human SSTR1 [5] [nM]	SMILES	effect on binding of the SRIF-28 radioligand to human SSTR2 ([1]; at 100 nM)	effect on binding of the SRIF-28 radioligand to SSTR5 ([2]; at 100 nM)	IC50 ([2]; inhibition of 125I-SRIF-28 radioligand binding, cloned human receptor) [nM]	effect on binding of the SRIF-28 radioligand to SSTR3 ([3]; at 100 nM)	selectivity in binding to SSTR4 compared with the other 4 receptors (in words) [4]	IC50 [4]	effect on binding of the SRIF-28 radioligand to human SSTR1 ([5]; at 100 nM)
–	–	–	–	C[C@@H](O)[C@@H]1NC(=O)[C@H](CCCCN)NC(=O)[C@H](Cc2c[nH]c3ccccc23)NC(=O)[C@H](Cc2ccc(N)cc2)NC(=O)[C@H](Cc2ccccc2)NC(=O)[C@@H](N)CSSC[C@@H](C(=O)O)NC(=O)[C@H](Cc2ccccc2)NC1=O [Peptide No. 1, (cyclo)H-Cys-Phe-4Aph-Trp-Lys-Thr-Phe-Cys-OH]	minimal effects	very minimal effect	1000	very minimal effect	selectively bound to SSTR4	~1.2 nM and 1.2 nM	minimal effects
≥ 750	≥ 630	≥ 750	≥ 750	C[C@@H]1NC(=O)[C@H](Cc2ccccc2)NC(=O)[C@@H](N)CSSC[C@@H](C(=O)O)NC(=O)[C@H](Cc2ccccc2)NC(=O)[C@H]([C@@H](C)O)NC(=O)[C@H](CCCCN)NC(=O)[C@H](Cc2c[nH]c3ccccc23)NC1=O [Peptide No. 12] (H-CFAWKTFC-OH; disulfide 1-8)	–	–	–	–	likewise selective	~0.84 nM and 0.84 nM	–
